The target of this test is [35S]-TBPS binding, rat brain cortical membranes. The test can be described thus: Steroid inhibition of TBPS binding ([35S]-TBPS radioligand displacement). To be noted: 3 nM [35S]-TBPS, 5 μM GABA. The protocol: TBPS binding assays using rat brain cortical membranes in the presence of 5 μM GABA has been described (Gee et al, J. Pharmacol. Exp. Then 1987, 241, 346-353; Hawkinson et al, Mol. Pharmacol. 1994, 46, 977-985; Lewin, A. H et al., Mol. Pharmacol. 1989, 35, 189-194).
Briefly, cortices are rapidly removed following decapitation of carbon dioxide-anesthetized Sprague-Dawley rats (200-250 g). The cortices are homogenized in 10 volumes of […] using a glass/teflon homogenizer and centrifuged at 1500×g for 10 min at 4° C. The resultant supernatants are centrifuged at 10,000×g for 20 min at 4° C. to obtain the P2 pellets. The P2 pellets are resuspended in 200 mM NaCl/50 mM Na—K phosphate pH 7.4 buffer and centrifuged at 10,000×g for 10 min at 4° C. This washing procedure is repeated twice and the pellets are resuspended in 10 volumes of buffer. Aliquots (100 μL) of the membrane suspensions are incubated with 3 nM [^35S]-TBPS and 5 μL aliquots of test drug dissolved in dimethyl sulfoxide (DMSO) (final 0.5%) in the presence of 5 μM GABA. The incubation is brought to a final volume of 1.0 mL with buffer. […] Following a 90 min incubation at room temp, the assays are terminated by filtration through glass fiber filters (Schleicher and Schuell No. 32) using a cell harvester (Braudel) and rinsed three times with ice-cold buffer. Filter bound radioactivity is measured by liquid scintillation spectrometry. Non-linear curve fitting of the overall data for each drug averaged for each concentration is done using Prism (GraphPad).
Various compounds are or can be screened to determine their potential as modulators of [^35S]-TBPS binding in vitro. These assays are or can be performed in accordance with the above discussed procedures.
In general terms: Displacement assays read how much labelled ligand stays bound in the presence of the test substance.

Structures are written as SMILES.

The IC50 is the midpoint of a concentration-inhibition curve. Low values mean greater potency, high ones weaker potency.

Take `C[C@@]1(O)CC[C@@]2(C)[C@H](CC[C@@H]3[C@@H]2CC[C@]2(C)[C@@H](C(=O)CN4CCOCC4)CC[C@@H]32)C1` [Compound 43, 1-((3R,5R,8R,9S,10S,13S,14S,17S)-3-hydroxy-3,10,13-trimethylhexadecahydro-1H-cyclopenta[a]phenanthren-17-yl)-2-morpholinoethanone]: the IC50 is 100 to 500 nM.
In the case of `C[C@H](C(=O)[C@H]1CC[C@H]2[C@@H]3CC[C@@H]4C[C@](C)(O)CC[C@]4(C)[C@H]3CC[C@]12C)n1nnc2ccccc21` [Compound 62, (R)-2-(1H-benzo[d][1,2,3]triazol-1-yl)-1-((3R,5R,8R,9S,10S,13S,14S,17S)-3-hydroxy-3,10,13-trimethylhexadecahydro-1H-cyclopenta[a]phenanthren-17-yl)propan-1-one] it was 100 to 500 nM.
Next, `C[C@@]1(O)CC[C@@]2(C)[C@@H](CC[C@@H]3[C@@H]2CC[C@]2(C)[C@@H](C(=O)Cn4nc5ccc(F)cc5n4)CC[C@@H]32)C1` [Compound 246]: less than 10 nM; `CN(C)C(=O)c1cnn(CC(=O)[C@H]2CC[C@H]3[C@@H]4CC[C@@H]5C[C@](C)(O)CC[C@]5(C)[C@H]4CC[C@]23C)c1` [Compound 86]: less than 10 nM.
Compound `C[C@@]1(O)CC[C@@]2(C)C(CC[C@H]3[C@@H]4CC[C@H](C(=O)Cn5nc6ccc(S(C)(=O)=O)cc6n5)[C@@]4(C)CC[C@@H]32)C1` (stereo in doubt) [Compound 104, 1-((3R,5R,8R,9S,10S,13S,14S,17S)-3-hydroxy-3,10,13-trimethylhexadecahydro-1H-cyclopenta[a]phenanthren-17-yl)-2-(5-(methylsulfonyl)-2H-benzo[d][1,2,3]triazol-2-yl)ethanone] registered an IC50 of less than 10 nM.
Next, `C[C@@]1(O)CC[C@@]2(C)[C@@H](CC[C@@H]3[C@@H]2CC[C@]2(C)[C@@H](C(=O)Cn4ncc5ccc(F)cc54)CC[C@@H]32)C1` [Compound 238]: 50 to 100 nM; `C[C@@H](C(=O)[C@H]1CC[C@H]2[C@@H]3CC[C@@H]4C[C@](C)(O)CC[C@]4(C)[C@H]3CC[C@]12C)n1ccnn1` [Compound 59, (S)-1-((3R,5R,8R,9S,10S,13S,14S,17S)-3-hydroxy-3,10,13-trimethylhexadecahydro-1H-cyclopenta[a]phenanthren-17-yl)-2-(1H-1,2,3-triazol-1-yl)propan-1-one]: 100 to 500 nM.
In the case of `CC(C(=O)[C@H]1CC[C@H]2[C@@H]3CC[C@@H]4C[C@](C)(O)CC[C@]4(C)[C@H]3CC[C@]12C)n1ccnn1` (stereo in doubt) [Compound 58, (R)-1-((3R,5R,8R,9S,10S,13S,14S,17S)-3-hydroxy-3,10,13-trimethylhexadecahydro-1H-cyclopenta[a]phenanthren-17-yl)-2-(1H-1,2,3-triazol-1-yl)propan-1-one] it was greater than 500 nM; in that of `CC(C(=O)[C@H]1CC[C@H]2[C@@H]3CC[C@@H]4C[C@](C)(O)CC[C@]4(C)[C@H]3CC[C@]12C)n1nccn1` (stereo in doubt) [Compound 56, (R)-1-((3R,5R,8R,9S,10S,13S,14S,17S)-3-hydroxyl-3,10,13-trimethylhexadecahydro-1H-cyclopenta[a]phenanthren-17-yl)-2-(2H-1,2,3-triazol-2-yl)propan-1-one], 50 to 100 nM; in that of `C[C@H](C(=O)[C@H]1CC[C@H]2[C@@H]3CC[C@H]4C[C@](C)(O)CC[C@]4(C)[C@H]3CC[C@]12C)n1nc2ccccc2n1` [Compound 98, (R)-2-(2H-benzo[d][1,2,3]triazol-2-yl)-1-((3R,5S,8R,9S,10S,13S,14S,17S)-3-hydroxy-3,10,13-trimethylhexadecahydro-1H-cyclopenta[a]phenanthren-17-yl)propan-1-one], 50 to 100 nM.
Take `C[C@@H](C(=O)[C@H]1CC[C@H]2[C@@H]3CC[C@H]4C[C@](C)(O)CC[C@]4(C)[C@H]3CC[C@]12C)n1nc2ccccc2n1` [Compound 99, (S)-2-(2H-benzo[d][1,2,3]triazol-2-yl)-1-((3R,5S,8R,9S,10S,13S,14S,17S)-3-hydroxy-3,10,13-trimethylhexadecahydro-1H-cyclopenta[a]phenanthren-17-yl)propan-1-one]: the IC50 fell in the range of 10 to 50 nM.
Next, `C[C@H](C(=O)[C@H]1CC[C@H]2[C@@H]3CC[C@@H]4C[C@](C)(O)CC[C@]4(C)[C@H]3CC[C@]12C)n1nc2ccccc2n1` [Compound 60, (R)-2-(2H-benzo[d][1,2,3]triazol-2-yl)-1-((3R,5R,8R,9S,10S,13S,14S,17S)-3-hydroxy-3,10,13-trimethylhexadecahydro-1H-cyclopenta[a]phenanthren-17-yl)propan-1-one]: 10 to 50 nM; `C[C@@H](C(=O)[C@H]1CC[C@H]2[C@@H]3CC[C@H]4C[C@](C)(O)CC[C@]4(C)[C@H]3CC[C@]12C)n1nccn1` [Compound 91, (S)-1-((3R,5S,8R,9S,10S,13S,14S,17S)-3-hydroxy-3,10,13-trimethylhexadecahydro-1H-cyclopenta[a]phenanthren-17-yl)-2-(2H-1,2,3-triazol-2-yl)propan-1-one]: 50 to 100 nM; `C[C@@]1(O)CC[C@@]2(C)[C@@H](CC[C@@H]3[C@@H]2CC[C@]2(C)[C@@H](C(=O)Cn4ncc5cc(F)ccc54)CC[C@@H]32)C1` [Compound 240]: 10 to 50 nM.
In the case of `CC(C(=O)[C@H]1CC[C@H]2[C@@H]3CC[C@@H]4C[C@](C)(O)CC[C@]4(C)[C@H]3CC[C@]12C)n1nnc2ccccc21` (stereo in doubt) [Compound 63, (S)-2-(1H-benzo[d][1,2,3]triazol-1-yl)-1-((3R,5R,8R,9S,10S,13S,14S,17S)-3-hydroxy-3,10,13-trimethylhexadecahydro-1H-cyclopenta[a]phenanthren-17-yl)propan-1-one] it was 10 to 50 nM; in that of `C[C@@]1(O)CC[C@@]2(C)[C@H](CC[C@@H]3[C@@H]2CC[C@]2(C)[C@@H](C(=O)Cn4cc(C#N)cn4)CC[C@@H]32)C1` [Compound 10, 1-(2-((3R,5R,8R,9S,10S,13S,14S,17S)-3-hydroxy-3,10,13-trimethylhexadecahydro-1H-cyclopenta[a]phenanthren-17-yl)-2-oxoethyl)-1H-pyrazole-4-carbonitrile], less than 10 nM; in that of `C[C@H](C(=O)[C@H]1CC[C@H]2[C@@H]3CC[C@H]4C[C@](C)(O)CC[C@]4(C)[C@H]3CC[C@]12C)n1cc(C#N)cn1` [Compound 80, 1-((R)-1-((3R,5S,8R,9S,10S,13S,14S,17S)-3-hydroxy-3,10,13-trimethylhexadecahydro-1H-cyclopenta[a]phenanthren-17-yl)-1-oxopropan-2-yl)-1H-pyrazole-4-carbonitrile], 100 to 500 nM.
Next, `C[C@@H](C(=O)[C@H]1CC[C@H]2[C@@H]3CC[C@@H]4C[C@](C)(O)CC[C@]4(C)[C@H]3CC[C@]12C)n1cc(C#N)cn1` [Compound 73, 1-((S)-1-((3R,5R,8R,9S,10S,13S,14S,17S)-3-hydroxy-3,10,13-trimethylhexadecahydro-1H-cyclopenta[a]phenanthren-17-yl)-1-oxopropan-2-yl)-1H-pyrazole-4-carbonitrile]: 10 to 50 nM.
`C[C@@]1(O)CC[C@@]2(C)[C@@H](CC[C@@H]3[C@@H]2CC[C@]2(C)[C@@H](C(=O)Cn4cc5cc(F)ccc5n4)CC[C@@H]32)C1` [Compound 239]: the IC50 was 10 to 50 nM.
With `C[C@@H](C(=O)[C@H]1CC[C@H]2[C@@H]3CC[C@H]4C[C@](C)(O)CC[C@]4(C)[C@H]3CC[C@]12C)n1cc(C#N)cn1` [Compound 81, 1-((S)-1-((3R,5S,8R,9S,10S,13S,14S,17S)-3-hydroxy-3,10,13-trimethylhexadecahydro-1H-cyclopenta[a]phenanthren-17-yl)-1-oxopropan-2-yl)-1H-pyrazole-4-carbonitrile], the IC50 was in the range of 10 to 50 nM.
In the case of `CSc1ccc2nnn(CC(=O)[C@H]3CC[C@H]4[C@@H]5CC[C@H]6C[C@](C)(O)CC[C@]6(C)[C@H]5CC[C@]34C)c2c1` [Compound 248] it was less than 10 nM.
In the case of `C[C@@]1(O)CC[C@@]2(C)[C@@H](CC[C@@H]3[C@@H]2CC[C@]2(C)[C@@H](C(=O)Cn4nc5ccc(F)cc5n4)CC[C@@H]32)C1` [Compound 245] it was 10 to 50 nM.
Next, `C[C@@H](C(=O)[C@H]1CC[C@H]2[C@@H]3CC[C@H]4C[C@](C)(O)CC[C@]4(C)[C@H]3CC[C@]12C)n1ccnn1` [Compound 93, (S)-1-((3R,5S,8R,9S,10S,13S,14S,17S)-3-hydroxy-3,10,13-trimethylhexadecahydro-1H-cyclopenta[a]phenanthren-17-yl)-2-(1H-1,2,3-triazol-1-yl)propan-1-one]: 100 to 500 nM.

For the origin of these results see patent publication US11530237B2, “Compositions and methods for treating CNS disorders” (Sage Therapeutics, Inc., priority 2014, dated 2022).
